Data taken from patent US20120122860A1, “SOLID FORMS OF SULFONAMIDES AND AMINO ACIDS” (Plexxikon, Inc., priority 2009, published 2012).

How the values were obtained:
[1] = Dog PK study of solid forms and formulations; assay type: in vivo, Beagle dogs
Method: Pharmacokinetic properties of various compositions prepared from the complexes may be assessed in male Sprague Dawley rats or male Beagle dogs, and compared to the properties of the free base compound. Rats are dosed daily with compound either by IV injections via surgically implanted jugular catheters or by oral gavage (PO). Each compound is prepared as a 20 mg/mL stock solution in dimethyl sulfoxide, which is further diluted to provide the dosing stock at the desired concentration for the IV or PO formulations. For IV dosing, the dosing stock is diluted into a 1:1:8 mixture of Solutol®:ethanol:water. For PO dosing, the dosing stock is diluted into 1% methylcellulose. In a cassette format, 5 compounds are diluted to 0.5 mg/mL each for IV dosing and 0.4 mg/mL each for PO dosing and dosed at 1 mg/kg (2 mL/kg) or 2 mg/kg (5 mL/kg), respectively. For IV dosed animals, tail vein blood samples are collected with lithium heparin anticoagulant at 5, 15, 30, and 60 minutes and 4, 8, and 24 hours post dosing each day. For PO dosed animals, tail vein blood samples are collected with lithium heparin anticoagulant at 30 minutes, 1, 2, 4, 8 and 24 hours post dosing each day. Dogs are dosed daily by oral capsules in a suitable formulation at 50 mg/mL. Cephalic vein blood samples are collected with lithium heparin anticoagulant at 30 minutes, 1, 2, 4, 8 and 24 hours post dosing each day. All samples are processed to plasma and frozen for later analysis of each compound by LC/MS/MS. Plasma levels as a function of time are plotted to assess the AUC (ng*hr/mL).
The arginine complex of N-[3-(5-chloro-1H-pyrrolo[2,3-b]pyridine-3-carbonyl)-2,4-difluoro-phenyl]-4-trifluoromethyl-benzenesulfonamide P-1021 was analyzed in a number of dog PK studies following the above or similar protocols. These were done primarily at Bridge Laboratories, Beijing, China, with one study done at Seventh Wave Laboratories LLC, Chesterfield, Mo. Plasma samples were analyzed to determine the plasma concentration (PPD Development, Madison, Wis.) at each time point from which the Cmax and AUC∞ were determined. In some instances, the materials are combined in the solvents indicated, and the solvent is removed by evaporation, or by spray drying where indicated. In these tables, unless indicated otherwise, the dose is mg/dog, and the Cmax/dose ((ng/mL)/(mg/kg)) and the AUC∞/dose ((ng*hr/mL)/(mg/kg)) are calculated assuming a 10 kg weight for the dogs.
This study was done at Seventh Wave, containers were provided with 13.259 g, 39.776 g or 66.301 g of this formulation and suspended in 360 mL of 1.5% Polysorbate 20 vehicle and dosed by oral gavage.
N-[3-(5-chloro-1H-pyrrolo[2,3-b]pyridine-3-carbonyl)-2,4-difluoro-phenyl]-4-trifluoromethyl-benzenesulfonamide P-1021 was analyzed in a dog PK study wherein the arginine complex of N-[3-(5-cyano-1H-pyrrolo[2,3-b]pyridine-3-carbonyl)-2,4-difluoro-phenyl]-4-trifluoromethyl-benzenesulfonamide P-1092 was also assessed.

[2] = target: B-Raf (Homo sapiens, UniProt P15056); assay: Kinase activity assay, B-Raf; assay type: biochemical; conditions: read-out: activity toward kinase B-Raf, IC50
[3] = target: B-Raf V600E (Homo sapiens, UniProt P15056, V600E); assay: Kinase activity assay, B-Raf V600E; assay type: biochemical; conditions: read-out: activity toward kinase B-Raf V600E, IC50
[4] = target: Kdr (Homo sapiens, UniProt P35968); assay: Kinase activity assay, Kdr
[5] = target: Src (Homo sapiens, UniProt P12931); assay: Kinase activity assay, Src
[6] = target: Flt1 (Homo sapiens, UniProt P17948); assay: Kinase activity assay, Flt1
[7] = target: C-Raf (Homo sapiens, UniProt P04049); assay: Kinase activity assay, C-Raf
[8] = target: Fms (Homo sapiens, UniProt P07333); assay: Kinase activity assay, Fms
[9] = target: Kit (Homo sapiens, UniProt P10721); assay: Kinase activity assay, Kit
[10] = Table 5B, forms of P-1021, dog, dose 150 mg/dog, 10 kg weight assumed
[11] = Table 7B, P-1021 arginine complex, dog, dose 200 mg/dog, 10 kg weight assumed
[12] = Table 7B, P-1021 arginine complex, dog, dose 400 mg/dog, 10 kg weight assumed
[13] = Table 8B, P-1021 arginine complex, dog, oral gavage, dose 249 mg/kg
[14] = Table 8B, P-1021 arginine complex, dog, oral gavage, dose 795 mg/kg
[15] = Table 8B, P-1021 arginine complex, dog, oral gavage, dose 965 mg/kg
[16] = test articles are solid forms of P-1021, dog, oral, 100 mg/dog, calculated assuming a 10 kg weight
[17] = Table 9B, dog, dose 200 mg/dog, 10 kg weight assumed
[18] = Table 9B, dog, dose 400 mg/dog, 10 kg weight assumed

Sequence of Fms (P07333 20-972): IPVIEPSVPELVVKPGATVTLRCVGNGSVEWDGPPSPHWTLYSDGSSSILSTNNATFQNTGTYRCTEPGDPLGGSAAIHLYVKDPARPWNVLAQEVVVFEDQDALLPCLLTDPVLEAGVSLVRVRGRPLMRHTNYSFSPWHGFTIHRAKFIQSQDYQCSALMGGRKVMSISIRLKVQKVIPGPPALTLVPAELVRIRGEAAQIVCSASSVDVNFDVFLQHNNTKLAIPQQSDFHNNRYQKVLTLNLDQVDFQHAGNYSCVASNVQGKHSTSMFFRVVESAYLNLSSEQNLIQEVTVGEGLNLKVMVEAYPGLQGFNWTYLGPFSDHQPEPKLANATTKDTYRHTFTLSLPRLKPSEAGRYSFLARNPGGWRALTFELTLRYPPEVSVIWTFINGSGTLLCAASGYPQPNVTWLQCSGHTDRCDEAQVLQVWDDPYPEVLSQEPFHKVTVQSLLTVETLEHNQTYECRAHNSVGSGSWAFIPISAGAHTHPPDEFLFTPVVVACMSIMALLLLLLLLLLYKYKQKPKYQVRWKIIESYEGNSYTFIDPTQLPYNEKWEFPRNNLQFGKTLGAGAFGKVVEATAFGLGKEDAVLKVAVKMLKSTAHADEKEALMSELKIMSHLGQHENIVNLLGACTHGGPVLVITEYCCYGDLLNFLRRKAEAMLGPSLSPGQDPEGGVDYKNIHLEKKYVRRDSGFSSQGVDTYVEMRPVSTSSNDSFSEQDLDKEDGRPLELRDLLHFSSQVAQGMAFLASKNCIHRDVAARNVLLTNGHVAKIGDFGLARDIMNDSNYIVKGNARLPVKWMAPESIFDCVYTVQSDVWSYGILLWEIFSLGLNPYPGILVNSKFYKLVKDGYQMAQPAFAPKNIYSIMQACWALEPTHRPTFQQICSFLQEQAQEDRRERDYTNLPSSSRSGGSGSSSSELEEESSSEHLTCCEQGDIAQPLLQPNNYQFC
Sequence of Src (P12931 whole entry): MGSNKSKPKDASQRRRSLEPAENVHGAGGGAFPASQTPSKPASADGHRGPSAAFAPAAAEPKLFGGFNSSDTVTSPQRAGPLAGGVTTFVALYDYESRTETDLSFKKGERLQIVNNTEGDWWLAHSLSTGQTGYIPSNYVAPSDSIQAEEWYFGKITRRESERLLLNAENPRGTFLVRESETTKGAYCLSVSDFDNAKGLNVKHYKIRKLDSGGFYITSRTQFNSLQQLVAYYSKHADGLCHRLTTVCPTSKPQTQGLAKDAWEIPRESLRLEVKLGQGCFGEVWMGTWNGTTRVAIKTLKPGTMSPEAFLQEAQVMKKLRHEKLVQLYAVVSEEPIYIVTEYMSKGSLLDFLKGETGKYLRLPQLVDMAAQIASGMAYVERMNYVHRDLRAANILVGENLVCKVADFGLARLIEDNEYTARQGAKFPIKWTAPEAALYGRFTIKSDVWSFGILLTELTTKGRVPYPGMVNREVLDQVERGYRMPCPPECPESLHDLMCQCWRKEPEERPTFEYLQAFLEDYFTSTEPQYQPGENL
Sequence of Kdr (P35968 20-1356): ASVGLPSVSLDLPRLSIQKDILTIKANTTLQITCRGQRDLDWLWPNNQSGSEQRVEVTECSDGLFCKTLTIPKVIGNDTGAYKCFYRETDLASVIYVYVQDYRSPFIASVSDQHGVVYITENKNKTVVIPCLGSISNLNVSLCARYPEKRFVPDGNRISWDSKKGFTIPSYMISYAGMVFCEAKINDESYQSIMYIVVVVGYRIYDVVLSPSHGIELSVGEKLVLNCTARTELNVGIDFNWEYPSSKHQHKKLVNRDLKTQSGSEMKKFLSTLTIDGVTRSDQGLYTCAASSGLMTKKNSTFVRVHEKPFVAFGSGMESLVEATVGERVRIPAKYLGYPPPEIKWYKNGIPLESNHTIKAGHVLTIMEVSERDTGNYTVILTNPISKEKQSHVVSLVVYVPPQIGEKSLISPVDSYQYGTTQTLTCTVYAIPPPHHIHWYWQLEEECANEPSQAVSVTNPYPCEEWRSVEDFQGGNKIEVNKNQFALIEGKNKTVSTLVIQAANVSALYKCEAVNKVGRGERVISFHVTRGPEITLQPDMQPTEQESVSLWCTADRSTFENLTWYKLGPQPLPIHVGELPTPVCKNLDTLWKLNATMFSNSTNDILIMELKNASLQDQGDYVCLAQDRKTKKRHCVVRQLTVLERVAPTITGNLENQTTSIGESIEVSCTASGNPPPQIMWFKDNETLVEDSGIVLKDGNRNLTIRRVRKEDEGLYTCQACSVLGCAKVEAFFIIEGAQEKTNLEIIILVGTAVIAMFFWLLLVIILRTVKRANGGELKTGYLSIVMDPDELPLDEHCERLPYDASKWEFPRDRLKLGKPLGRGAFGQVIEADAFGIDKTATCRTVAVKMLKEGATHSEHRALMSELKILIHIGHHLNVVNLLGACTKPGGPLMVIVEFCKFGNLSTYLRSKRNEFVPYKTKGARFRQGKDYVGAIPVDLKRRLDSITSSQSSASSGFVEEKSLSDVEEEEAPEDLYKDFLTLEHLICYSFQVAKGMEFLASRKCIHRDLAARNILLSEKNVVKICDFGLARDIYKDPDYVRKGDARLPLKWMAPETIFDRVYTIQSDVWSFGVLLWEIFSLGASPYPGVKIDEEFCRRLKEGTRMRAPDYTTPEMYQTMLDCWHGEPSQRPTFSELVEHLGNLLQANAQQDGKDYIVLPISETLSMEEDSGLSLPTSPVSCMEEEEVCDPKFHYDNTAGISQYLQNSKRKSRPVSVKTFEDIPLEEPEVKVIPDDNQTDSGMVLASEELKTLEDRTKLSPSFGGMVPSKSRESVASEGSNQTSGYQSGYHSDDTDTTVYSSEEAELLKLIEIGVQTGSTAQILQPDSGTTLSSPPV
Sequence of B-Raf V600E (P15056 whole entry V600E): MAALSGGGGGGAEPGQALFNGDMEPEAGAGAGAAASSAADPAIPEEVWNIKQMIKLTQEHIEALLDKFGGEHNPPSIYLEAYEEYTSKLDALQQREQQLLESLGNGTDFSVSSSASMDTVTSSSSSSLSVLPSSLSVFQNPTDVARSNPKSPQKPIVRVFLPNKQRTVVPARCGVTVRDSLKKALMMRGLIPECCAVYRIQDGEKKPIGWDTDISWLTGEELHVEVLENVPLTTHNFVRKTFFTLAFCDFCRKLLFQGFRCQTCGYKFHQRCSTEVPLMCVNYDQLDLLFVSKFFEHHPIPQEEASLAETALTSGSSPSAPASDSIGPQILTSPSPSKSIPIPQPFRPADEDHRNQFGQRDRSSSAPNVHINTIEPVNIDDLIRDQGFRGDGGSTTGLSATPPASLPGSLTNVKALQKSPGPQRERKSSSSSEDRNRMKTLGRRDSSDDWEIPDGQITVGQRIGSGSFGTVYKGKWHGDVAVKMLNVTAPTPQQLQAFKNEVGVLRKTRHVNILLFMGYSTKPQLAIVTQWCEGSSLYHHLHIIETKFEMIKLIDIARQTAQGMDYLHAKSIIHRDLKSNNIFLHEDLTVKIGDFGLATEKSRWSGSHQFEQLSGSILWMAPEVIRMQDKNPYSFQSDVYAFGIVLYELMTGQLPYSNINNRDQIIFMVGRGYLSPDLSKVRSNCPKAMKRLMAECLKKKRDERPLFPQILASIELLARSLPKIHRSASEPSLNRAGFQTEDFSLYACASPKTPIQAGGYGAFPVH
Sequence of Kit (P10721 26-976): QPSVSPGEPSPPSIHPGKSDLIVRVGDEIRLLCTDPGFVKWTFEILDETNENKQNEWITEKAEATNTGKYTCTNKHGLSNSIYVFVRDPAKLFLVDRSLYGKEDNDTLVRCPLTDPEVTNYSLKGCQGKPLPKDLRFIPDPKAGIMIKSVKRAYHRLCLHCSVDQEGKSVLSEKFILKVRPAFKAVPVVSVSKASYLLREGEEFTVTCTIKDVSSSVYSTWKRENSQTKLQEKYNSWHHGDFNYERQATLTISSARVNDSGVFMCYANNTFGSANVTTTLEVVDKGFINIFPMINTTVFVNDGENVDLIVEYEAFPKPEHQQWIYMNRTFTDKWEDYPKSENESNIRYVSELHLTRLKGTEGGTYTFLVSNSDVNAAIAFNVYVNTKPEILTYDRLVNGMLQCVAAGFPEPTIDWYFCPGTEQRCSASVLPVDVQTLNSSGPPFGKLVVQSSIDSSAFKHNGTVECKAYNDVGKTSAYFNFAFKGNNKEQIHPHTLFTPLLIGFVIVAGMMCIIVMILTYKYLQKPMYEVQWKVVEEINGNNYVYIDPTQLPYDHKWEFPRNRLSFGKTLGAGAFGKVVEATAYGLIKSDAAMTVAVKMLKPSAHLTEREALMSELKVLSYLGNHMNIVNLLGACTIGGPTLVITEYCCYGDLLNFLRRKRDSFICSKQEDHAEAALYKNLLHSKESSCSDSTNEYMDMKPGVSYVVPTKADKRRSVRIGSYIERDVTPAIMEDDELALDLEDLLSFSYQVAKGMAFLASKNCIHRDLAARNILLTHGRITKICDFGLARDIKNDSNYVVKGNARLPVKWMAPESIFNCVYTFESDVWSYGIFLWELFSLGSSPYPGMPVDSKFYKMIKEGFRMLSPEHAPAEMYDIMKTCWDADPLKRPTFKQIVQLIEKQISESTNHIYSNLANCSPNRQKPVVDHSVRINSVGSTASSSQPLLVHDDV
Sequence of B-Raf (P15056 whole entry): as the sequence (P15056 whole entry V600E) above, with E600V counted along it

Structure (SMILES) | IC50 [2] [µM] | IC50 [3] [µM] | IC50 [4] [µM] | IC50 [6] [µM] | IC50 [7] [µM] | IC50 [8] [µM] | IC50 [9] [µM] | also measured
O=C(c1c(F)ccc(NS(=O)(=O)c2ccc(C(F)(F)F)cc2)c1F)c1c[nH]c2ncc(Cl)cc12 [Mesylate, N-[3-(5-chloro-1H-pyrrolo[2,3-b]pyridine-3-carbonyl)-2,4-difluoro-phenyl]-4-trifluoromethyl-benzenesulfonamide] | – | – | – | – | – | – | – | AUC∞/dose [1, 10]: 2,849 (ng*hr/mL)/(mg/kg); Cmax/dose [1, 10]: 116 (ng/mL)/(mg/kg)
O=C(c1c(F)ccc(NS(=O)(=O)c2ccc(C(F)(F)F)cc2)c1F)c1c[nH]c2ncc(Cl)cc12 [P-1021 arginine complex, N-[3-(5-chloro-1H-pyrrolo[2,3-b]pyridine-3-carbonyl)-2,4-difluoro-phenyl]-4-trifluoromethyl-benzenesulfonamide] | – | – | – | – | – | – | – | AUC/dose ([1]; P-1021 arginine complex dosed at 400 mg per dog (Table 6B, Table 7B), typical value): greater than 12,000 (ng*hr/mL)/(mg/kg); AUC∞/dose [1, 10]: 34,693 (ng*hr/mL)/(mg/kg); Cmax/dose [1, 10]: 810 (ng/mL)/(mg/kg); AUC∞/dose [1, 11]: 22,480 (ng*hr/mL)/(mg/kg); Cmax/dose [1, 11]: 960 (ng/mL)/(mg/kg); AUC∞/dose [1, 12]: 12,120 (ng*hr/mL)/(mg/kg); Cmax/dose [1, 12]: 455 (ng/mL)/(mg/kg); AUC∞/dose [1, 13]: 11,247 (ng*hr/mL)/(mg/kg); Cmax/dose [1, 13]: 208 (ng/mL)/(mg/kg); AUC∞/dose [1, 14]: 7,457 (ng*hr/mL)/(mg/kg); Cmax/dose [1, 14]: 107 (ng/mL)/(mg/kg); AUC∞/dose [1, 15]: 3,883 (ng*hr/mL)/(mg/kg); Cmax/dose [1, 15]: 178 (ng/mL)/(mg/kg); AUC∞/dose [1, 16]: 16,850 (ng*hr/mL)/(mg/kg); Cmax/dose [1, 16]: 830.5 (ng/mL)/(mg/kg)
O=C(c1c(F)ccc(NS(=O)(=O)c2ccc(C(F)(F)F)cc2)c1F)c1c[nH]c2ncc(Cl)cc12 [P-1021, N-[3-(5-chloro-1H-pyrrolo[2,3-b]pyridine-3-carbonyl)-2,4-difluoro-phenyl]-4-trifluoromethyl-benzenesulfonamide] | – | – | – | – | – | – | – | Cmax and AUC / exposure, comparison in words ([1]; dog PK studies, arginine complex): favorable Cmax and AUC compared to free base and other formulations
N#Cc1cnc2[nH]cc(C(=O)c3c(F)ccc(NS(=O)(=O)c4ccc(C(F)(F)F)cc4)c3F)c2c1 [P-1092 arginine complex, N-[3-(5-cyano-1H-pyrrolo[2,3-b]pyridine-3-carbonyl)-2,4-difluoro-phenyl]-4-trifluoromethyl-benzenesulfonamide] | – | – | – | – | – | – | – | AUC∞/dose [1, 17]: 11,720 (ng*hr/mL)/(mg/kg); Cmax/dose [1, 17]: 550 (ng/mL)/(mg/kg); AUC∞/dose [1, 18]: 12,580 (ng*hr/mL)/(mg/kg); Cmax/dose [1, 18]: 617.5 (ng/mL)/(mg/kg)
CCCS(=O)(=O)Nc1ccc(F)c(C(O)c2c[nH]c3ncc(-c4ccc(C(=O)NCC)nc4)cc23)c1F (centres unmarked) [P-2150, 5-(3-{[2,6-Difluoro-3-(propane-1-sulfonylamino)-phenyl]-hydroxy-methyl}-1H-pyrrolo[2,3-b]pyridin-5-yl)-pyridine-2-carboxylic acid ethylamide] | ≤ 10 | ≤ 10 | ≤ 10 | ≤ 10 | ≤ 10 | – | – | IC50 [5]: ≤ 10 µM
CCCS(=O)(=O)Nc1ccc(F)c(C(=O)c2c[nH]c3ncc(-c4ccc(C(=O)NCC)nc4)cc23)c1F [P-2151, 5-{3-[2,6-Difluoro-3-(propane-1-sulfonylamino)-benzoyl]-1H-pyrrolo[2,3-b]pyridin-5-yl}-pyridine-2-carboxylic acid ethylamide] | ≤ 10 | ≤ 10 | ≤ 10 | ≤ 10 | ≤ 10 | ≤ 10 | ≤ 10 | IC50 [5]: ≤ 10 µM
O=C(c1c(F)ccc(NS(=O)(=O)c2ccc(C(F)(F)F)cc2)c1F)c1c[nH]c2ncc(Cl)cc12 [Sulfate, N-[3-(5-chloro-1H-pyrrolo[2,3-b]pyridine-3-carbonyl)-2,4-difluoro-phenyl]-4-trifluoromethyl-benzenesulfonamide] | – | – | – | – | – | – | – | AUC∞/dose [1, 16]: 5,067 (ng*hr/mL)/(mg/kg); Cmax/dose [1, 16]: 181.5 (ng/mL)/(mg/kg)

Continued, in another order:

IC50 [2] [µM] | IC50 [3] [µM] | IC50 [4] [µM] | IC50 [6] [µM] | IC50 [7] [µM] | IC50 [8] [µM] | IC50 [9] [µM] | Structure (SMILES) | also measured
≤ 10 | ≤ 10 | ≤ 10 | ≤ 10 | ≤ 10 | – | – | CCCS(=O)(=O)Nc1ccc(F)c(C(=O)c2c[nH]c3ncc(-c4cncnc4)cc23)c1F [P-2162, Propane-1-sulfonic acid [2,4-difluoro-3-(5-pyrimidin-5-yl-1H-pyrrolo[2,3-b]pyridine-3-carbonyl)-phenyl]-amide] | IC50 [5]: ≤ 10 µM
≤ 10 | ≤ 10 | ≤ 10 | ≤ 10 | ≤ 10 | ≤ 10 | ≤ 10 | CCCS(=O)(=O)Nc1ccc(F)c(C(=O)c2c[nH]c3ncc(C(=O)NC)cc23)c1F [P-2200, 3-[2,6-Difluoro-3-(propane-1-sulfonylamino)-benzoyl]-1H-pyrrolo[2,3-b]pyridine-5-carboxylic acid methylamide] | –
≤ 10 | ≤ 10 | ≤ 10 | ≤ 10 | ≤ 10 | ≤ 10 | ≤ 10 | CCCS(=O)(=O)Nc1ccc(F)c(C(=O)c2c[nH]c3ncc(C(=O)NC4CC4)cc23)c1F [P-2201, 3-[2,6-Difluoro-3-(propane-1-sulfonylamino)-benzoyl]-1H-pyrrolo[2,3-b]pyridine-5-carboxylic acid cyclopropylamide] | –
≤ 10 | ≤ 10 | ≤ 10 | ≤ 10 | – | ≤ 10 | ≤ 10 | CCCS(=O)(=O)Nc1ccc(F)c(C(=O)c2c[nH]c3ncc(-c4cnc(OCCCN(C)C)nc4)cc23)c1F [P-2203, Propane-1-sulfonic acid (3-{5-[2-(3-dimethylamino-propoxy)-pyrimidin-5-yl]-1H-pyrrolo[2,3-b]pyridine-3-carbonyl}-2,4-difluoro-phenyl)-amide] | –
≤ 10 | ≤ 10 | ≤ 10 | ≤ 10 | ≤ 10 | – | – | CCCS(=O)(=O)Nc1ccc(F)c(C(=O)c2c[nH]c3ncc(C(=O)NCCO)cc23)c1F [P-2217, 3-[2,6-Difluoro-3-(propane-1-sulfonylamino)-benzoyl]-1H-pyrrolo[2,3-b]pyridine-5-carboxylic acid (2-hydroxy-ethyl)-amide] | IC50 [5]: ≤ 10 µM
≤ 10 | ≤ 10 | ≤ 10 | ≤ 10 | ≤ 10 | ≤ 10 | ≤ 10 | CCCS(=O)(=O)Nc1ccc(F)c(C(=O)c2c[nH]c3ncc(-c4ccc(S(=O)(=O)CC)cc4)cc23)c1F [P-2218, Propane-1-sulfonic acid {3-[5-(4-ethanesulfonyl-phenyl)-1H-pyrrolo[2,3-b]pyridine-3-carbonyl]-2,4-difluoro-phenyl}-amide] | –
≤ 10 | ≤ 10 | ≤ 10 | ≤ 10 | ≤ 10 | ≤ 10 | – | CCCS(=O)(=O)Nc1cccc(C(=O)c2c[nH]c3ncc(C(=O)OC)cc23)c1F [P-2404, 3-[2-Fluoro-3-(propane-1-sulfonylamino)-benzoyl]-1H-pyrrolo[2,3-b]pyridine-5-carboxylic acid methyl ester] | –
